Assay results published in patent US20100160369A1, “S1P1 Agonists and Methods of Making And Using” (EXELIXIS, INC., priority 2008, published 2010).
Where two headings read alike, the source gives them in different places.

Molecular target: S1P1 (Homo sapiens, UniProt P21453)
Assay: CNG cAMP Assay (Assay 1)
Format: cell-based
Parameters: host or cells: HEK293 cells expressing the CNG channel
Procedure: Frozen HEK293 cells expressing the CNG channel and S1P1 (BD Biosciences, San Jose, Calif.) were thawed and plated into the wells of a black, clear bottom, 384-well CellBind plate (Corning, Corning, N.Y.) at 14,000 cells per well. HEK293 cells expressing the CNG channel and CB1 (BD Biosciences) were cultured and plated under the same conditions. The cells were incubated for 16 h at 37° C. in complete DMEM medium (Invitrogen Carlsbad, Calif.) containing 10% FBS (HyClone Logan, Utah), 250 μg/mL geneticin (Invitrogen), and 1 μg/mL puromycin (Sigma-Aldrich, St. Louis, Mo.). A membrane potential dye (BD Biosciences) was added and the plates were incubated for 2-2.5 h at room temperature.
Test compounds were tested at maximum concentrations of 10 μM. Compounds were diluted in DMSO (10 concentration points, 3-fold each) and added to the assay plate at final DMSO concentrations of 1.8%. For each compound, there were duplicate assay plates and each assay plate had duplicate wells per concentration point. Test compounds were added to the cells in a DPBS solution containing 25 μM Ro 20-1724 (Sigma-Aldrich), 500 nM of the A2b receptor agonist NECA (Sigma-Aldrich) and 10 nM (EC95) of S1P (Avanti Alabaster, Ala.) and incubated for 90 min. The assay plate was read before compound addition (T0) and after the 90 min incubation (T90) using an EnVision plate reader (PerkinElmer, Waltham, Mass.) at an excitation wavelength of 350 nm and an emission wavelength of 590 nm. The T90/T0 ratio was determined for each concentration of the test compounds. The percent agonist activity was determined as [(test compound−DMSO alone control)/(NECA alone control−DMSO alone control)*100]. The percent activities were plotted against compound concentration to determine EC50 using XLFit (IDBS, Alameda, Calif.). The control used for calculating rEC50 in the S1P1 CNG agonist assay was DMSO.
Assay 1 is the CNG cAMP Assay as described in Biological Example 1. Assay 2a and 2b are the Tango™ β-arrestin Recruitment Assay in HEK293 and U2OS cells, respectively, as described in Biological Example 2. Assay 3a is the hS1P1R GTPγS Binding Assay as described in Biological Example 3. Assay 3b is the GTP-Eu Binding Assay as described in Biological Example 3. EC50's were measured unless otherwise noted. […] In the table, “nt” means the Compound was not tested and “no” means the compound was tested but had no measurable activity under the assay conditions employed.

[1] = relative EC50 was measured (footnote 1), read-out: Assay 1 Relative EC50

Chain of S1P1 (P21453 whole entry): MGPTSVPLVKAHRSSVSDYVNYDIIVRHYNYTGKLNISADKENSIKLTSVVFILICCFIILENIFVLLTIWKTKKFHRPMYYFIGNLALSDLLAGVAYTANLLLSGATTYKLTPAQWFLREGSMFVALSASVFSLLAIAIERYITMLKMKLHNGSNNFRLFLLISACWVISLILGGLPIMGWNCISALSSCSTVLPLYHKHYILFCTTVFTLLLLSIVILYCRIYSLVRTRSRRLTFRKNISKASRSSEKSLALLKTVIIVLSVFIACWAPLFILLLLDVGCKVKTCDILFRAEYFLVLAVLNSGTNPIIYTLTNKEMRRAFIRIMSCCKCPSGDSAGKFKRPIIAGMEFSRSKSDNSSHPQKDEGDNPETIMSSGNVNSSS

Compound | EC50 (read-out: Assay 1 EC50) | EC50 [1]
O=C(O)CCc1cc(Cl)c(-c2noc(-c3cn4ccccc4n3)n2)cc1F [Entry 27] | – | 5000 to 10000 nM
O=C(O)CCc1cc(Cl)c(-c2noc(-c3cn4cccc(Cl)c4n3)n2)cc1F [Entry 32] | 100 to 500 nM | –
Cc1c(Cl)cn2cc(-c3nc(-c4cc(F)c(CCC(=O)O)cc4Cl)no3)nc2c1Cl [Entry 35] | 500 to 1000 nM | –
C=CCOc1c(C)cc(-c2noc(-c3cn4cc(C(F)(F)F)cc(Cl)c4n3)n2)cc1C [Entry 37] | – | 5000 to 10000 nM
O=C(O)CCc1cc(Cl)c(-c2noc(-c3cn4cc(F)cc(F)c4n3)n2)cc1F [Entry 40] | – | 1000 to 5000 nM
N#Cc1cc(Cl)c2nc(-c3nc(-c4cc(F)c(CCC(=O)O)cc4Cl)no3)cn2c1 [Entry 48] | ≤ 100 nM | –
COc1cc2nc(-c3nc(-c4cc(F)c(CCC(=O)O)cc4Cl)no3)cn2cc1Cl [Entry 55] | – | 5000 to 10000 nM
CS(=O)(=O)Nc1cc(Cl)c2nc(-c3nc(-c4cc(F)c(CCC(=O)O)cc4Cl)no3)cn2c1 [Entry 59] | – | 1000 to 5000 nM
Cc1c(Br)cc(Br)c2nc(-c3nc(-c4cc(F)c(CCC(=O)O)cc4Cl)no3)cn12 [Entry 62] | ≤ 100 nM | –
Fc1cccc(F)c1-c1nnc(-c2cn3cc(C(F)(F)F)cc(Cl)c3n2)o1 [Entry 66] | 500 to 1000 nM | –
FC(F)(F)c1cc(Cl)c2nc(-c3nnc(-c4ccccc4Cl)o3)cn2c1 [Entry 73] | ≤ 100 nM | –
O=C(O)CCc1ccc(Nc2nnc(-c3cn4cc(C(F)(F)F)cc(Cl)c4n3)o2)c(Cl)c1 [Entry 74] | – | 5000 to 10000 nM
O=C(O)C1CC1c1ccc(-c2noc(-c3cn4cc(C(F)(F)F)cc(Cl)c4n3)n2)cc1 (stereo not drawn) [Entry 75] | – | 500 to 1000 nM
O=C(O)C1CC1c1ccc(-c2noc(-c3cn4cc(C(F)(F)F)cc(Cl)c4n3)n2)cc1F (stereo not drawn) [Example 78, 2-(4-{5-[8-chloro-6-(trifluoromethyl)imidazo[1,2-a]pyridin-2-yl]-1,2,4-oxadiazol-3-yl}-2-fluorophenyl)cyclopropanecarboxylic acid] | 100 to 500 nM | –
O=C(O)C1CC1c1cc(F)c(-c2noc(-c3cn4cc(C(F)(F)F)cc(Cl)c4n3)n2)cc1F (stereo not drawn) [Example 88, 2-(4-{5-[8-chloro-6-(trifluoromethyl)imidazo[1,2-a]pyridin-2-yl]-1,2,4-oxadiazol-3-yl}-2,5-difluorophenyl)cyclopropanecarboxylic acid] | ≤ 100 nM | –
Cc1cc(-c2noc(-c3cn4cc(C(F)(F)F)cc(Cl)c4n3)n2)cc(C)c1O[C@H](C)CO [Example 91, (2R)-2-[(4-{5-[8-chloro-6-(trifluoromethyl)imidazo[1,2-a]pyridin-2-yl]-1,2,4-oxadiazol-3-yl}-2,6-dimethylphenyl)oxy]propan-1-ol] | ≤ 100 nM | –
Cc1cc(NS(C)(=O)=O)c(F)cc1-c1noc(-c2cn3cc(C(F)(F)F)cc(Cl)c3n2)n1 [Example 106, N-(4-{5-[8-chloro-6-(trifluoromethyl)imidazo[1,2-a]pyridin-2-yl]-1,2,4-oxadiazol-3-yl}-2-fluoro-5-methylphenyl)methane sulfonamide] | ≤ 100 nM | –
Cc1cc(-c2noc(-c3cn4cc(C(F)(F)F)cc(Cl)c4n3)n2)cc(C)c1O[C@@H](C)CO [Example 107, (2S)-2-[(4-{5-[8-chloro-6-(trifluoromethyl)imidazo[1,2-a]pyridin-2-yl]-1,2,4-oxadiazol-3-yl}-2,6-dimethylphenyl)oxy]propan-1-ol] | ≤ 100 nM | –
CS(=O)(=O)Nc1ccc(-c2noc(-c3cn4cc(C(F)(F)F)cc(Cl)c4n3)n2)cc1F [Example 109, N-(4-{5-[8-chloro-6-(trifluoromethyl)imidazo[1,2-a]pyridin-2-yl]-1,2,4-oxadiazol-3-yl}-2-fluorophenyl)methanesulfonamide] | 100 to 500 nM | –
CS(=O)(=O)Nc1cc(Cl)c(-c2noc(-c3cn4cc(C(F)(F)F)cc(Cl)c4n3)n2)cc1F [Example 111, N-(5-chloro-4-{5-[8-chloro-6-(trifluoromethyl)imidazo[1,2-a]pyridin-2-yl]-1,2,4-oxadiazol-3-yl}-2-fluorophenyl)methanesulfonamide] | ≤ 100 nM | –

Other lines, results leading:

EC50 (read-out: Assay 1 EC50) | EC50 [1] | Compound
≤ 100 nM | – | O=C(O)CCc1ccc(-c2noc(-c3cn4cc(C(F)(F)F)cc(Cl)c4n3)n2)c(C(F)(F)F)c1 [Entry 8]
100 to 500 nM | – | NC(Cc1ccc(-c2noc(-c3cn4cc(C(F)(F)F)cc(Cl)c4n3)n2)c(Cl)c1)C(=O)O (stereo not drawn) [Entry 11]
≤ 100 nM | – | O=C(O)CCc1ccc(-c2noc(-c3cn4cc(C(F)(F)F)cc(Cl)c4n3)n2)cc1 [Entry 22]
≤ 100 nM | – | Cc1cc(-c2noc(-c3cn4cc(C(F)(F)F)cc(Cl)c4n3)n2)ccc1CCC(=O)O [Entry 23]
100 to 500 nM | – | O=C(O)C1CC1c1ccc(-c2noc(-c3cn4cc(C(F)(F)F)cc(Cl)c4n3)n2)c(F)c1 (stereo not drawn) [Entry 41]
≤ 100 nM | – | O=C(O)C(O)COc1ccc(-c2noc(-c3cn4cc(C(F)(F)F)cc(Cl)c4n3)n2)c(Cl)c1 (stereo not drawn) [Entry 57]
≤ 100 nM | – | O=C(O)CCc1cc(F)c(-c2noc(-c3cn4cc(C(F)(F)F)cc(Cl)c4n3)n2)cc1F [Entry 60]
100 to 500 nM | – | O=C(O)C1CC1c1ccc(-c2noc(-c3cn4cc(C(F)(F)F)cc(Cl)c4n3)n2)c(C(F)(F)F)c1 (stereo not drawn) [Entry 70]
≤ 100 nM | – | NC(=O)C1CC1c1ccc(-c2noc(-c3cn4cc(C(F)(F)F)cc(Cl)c4n3)n2)c(Cl)c1 (stereo not drawn) [Entry 72]
100 to 500 nM | – | CC(Oc1cc(Cl)c(-c2noc(-c3cn4cc(C(F)(F)F)cc(Cl)c4n3)n2)cc1F)C(=O)O (stereo not drawn) [Example 83, 2-[(5-chloro-4-{5-[8-chloro-6-(trifluoromethyl)imidazo[1,2-a]pyridin-2-yl]-1,2,4-oxadiazol-3-yl}-2-fluorophenyl)oxy]propanoic acid]
100 to 500 nM | – | OC[C@H]1C[C@H](Oc2ccc(-c3noc(-c4cn5cc(C(F)(F)F)cc(Cl)c5n4)n3)c(Cl)c2)CN1 [Example 84, {(2R,4S)-4-[(3-chloro-4-{5-[8-chloro-6-(trifluoromethyl)imidazo[1,2-a]pyridin-2-yl]-1,2,4-oxadiazol-3-yl}phenyl)oxy]pyrrolidin-2-yl}methanol]
100 to 500 nM | – | Cc1cc(-c2noc(-c3cn4cc(C(F)(F)F)cc(Cl)c4n3)n2)ccc1C1CC1C(=O)O (stereo not drawn) [Example 86, 2-(4-{5-[8-chloro-6-(trifluoromethyl)imidazo[1,2-a]pyridin-2-yl]-1,2,4-oxadiazol-3-yl}-2-methylphenyl)cyclopropanecarboxylic acid]
≤ 100 nM | – | OC[C@@H]1C[C@H](Oc2ccc(-c3noc(-c4cn5cc(C(F)(F)F)cc(Cl)c5n4)n3)c(Cl)c2)CN1 [Example 87, {(2S,4S)-4-[(3-chloro-4-{5-[8-chloro-6-(trifluoromethyl)imidazo[1,2-a]pyridin-2-yl]-1,2,4-oxadiazol-3-yl}phenyl)oxy]pyrrolidin-2-yl}methanol]
≤ 100 nM | – | Nc1ccc(-c2noc(-c3cn4cc(C(F)(F)F)cc(Cl)c4n3)n2)c(Cl)c1 [Example 90, 3-chloro-4-{5-[8-chloro-6-(trifluoromethyl)imidazo[1,2-a]pyridin-2-yl]-1,2,4-oxadiazol-3-yl}aniline]
100 to 500 nM | – | O=C(O)CCNc1ccc(-c2noc(-c3cn4cc(C(F)(F)F)cc(Cl)c4n3)n2)c(Cl)c1 [Example 95, N-(3-chloro-4-{5-[8-chloro-6-(trifluoromethyl)imidazo[1,2-a]pyridin-2-yl]-1,2,4-oxadiazol-3-yl}phenyl)-beta-alanine]
100 to 500 nM | – | O=C(O)CNc1ccc(-c2noc(-c3cn4cc(C(F)(F)F)cc(Cl)c4n3)n2)c(Cl)c1 [Example 103, N-(3-chloro-4-{5-[8-chloro-6-(trifluormethyl)imidazo[1,2-a]pyridin-2-yl]-1,2,4-oxadiazol-3-yl}phenyl)glycine]
– | 1000 to 5000 nM | CCN(CC)CCS(=O)(=O)Nc1ccc(-c2noc(-c3cn4cc(C(F)(F)F)cc(Cl)c4n3)n2)c(Cl)c1 [Example 108, N-(3-chloro-4-{5-[8-chloro-6-(trifluoromethyl)imidazo[1,2-a]pyridin-2-yl]-1,2,4-oxadiazol-3-yl}phenyl)-2-(diethylamino)ethanesulfonamide]
≤ 100 nM | – | O=C(O)CN1CCC(Oc2ccc(-c3noc(-c4cn5cc(C(F)(F)F)cc(Cl)c5n4)n3)c(Cl)c2)C1 (stereo not drawn) [Example 112]
≤ 100 nM | – | CCOC(=O)C(C)Oc1cc(Cl)c(-c2noc(-c3cn4cc(C(F)(F)F)cc(Cl)c4n3)n2)cc1F (stereo not drawn) [Example 113, ethyl 2-[(5-chloro-4-{5-[8-chloro-6-(trifluoromethyl)imidazo[1,2-a]pyridin-2-yl]-1,2,4-oxadiazol-3-yl}-2-fluorophenyl)oxy]propanoate]
